Experimental data from patent publication US12187723B2 (BRISTOL-MYERS SQUIBB COMPANY, priority 2019, dated 2025).

What was measured:
human TLR9 = target: T1, human TLR9 (Homo sapiens, UniProt Q9NR96); test: TLR9 inhibition reporter assay (HEK-Blue SEAP); format: cell-based; conditions: HEK-Blue cells overexpressing human TLR9, ODN2006 5 nM, 22 hour incubation
T1 construct: host or cells: HEK-Blue cells
T1 sequence (Q9NR96 26-1032): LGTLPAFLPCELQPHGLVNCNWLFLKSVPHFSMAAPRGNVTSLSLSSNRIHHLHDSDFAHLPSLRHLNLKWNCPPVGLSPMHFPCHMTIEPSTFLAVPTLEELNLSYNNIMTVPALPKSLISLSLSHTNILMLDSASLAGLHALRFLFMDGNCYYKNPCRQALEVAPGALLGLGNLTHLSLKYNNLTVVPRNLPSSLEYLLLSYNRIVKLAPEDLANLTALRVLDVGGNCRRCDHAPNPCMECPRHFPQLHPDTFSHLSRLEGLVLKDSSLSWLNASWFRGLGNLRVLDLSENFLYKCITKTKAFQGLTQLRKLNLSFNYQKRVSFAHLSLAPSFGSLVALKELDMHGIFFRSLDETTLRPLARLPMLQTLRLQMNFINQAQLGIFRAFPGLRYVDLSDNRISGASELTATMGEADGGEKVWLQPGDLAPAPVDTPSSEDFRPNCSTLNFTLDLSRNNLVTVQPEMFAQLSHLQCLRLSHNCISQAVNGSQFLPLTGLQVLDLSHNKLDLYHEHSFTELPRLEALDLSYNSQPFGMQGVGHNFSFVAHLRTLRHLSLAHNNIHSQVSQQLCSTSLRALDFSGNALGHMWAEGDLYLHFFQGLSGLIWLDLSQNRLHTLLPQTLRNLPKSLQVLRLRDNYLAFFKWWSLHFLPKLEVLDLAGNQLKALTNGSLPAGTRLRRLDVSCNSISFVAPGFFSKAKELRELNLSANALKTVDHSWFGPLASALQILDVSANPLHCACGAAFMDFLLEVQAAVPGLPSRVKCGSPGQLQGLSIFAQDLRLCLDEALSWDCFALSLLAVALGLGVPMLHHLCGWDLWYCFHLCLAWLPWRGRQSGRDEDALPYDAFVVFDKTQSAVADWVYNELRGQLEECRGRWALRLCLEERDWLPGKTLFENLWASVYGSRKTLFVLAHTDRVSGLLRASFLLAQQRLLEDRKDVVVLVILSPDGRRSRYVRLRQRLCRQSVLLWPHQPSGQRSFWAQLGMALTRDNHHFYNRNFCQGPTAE
How it was run: (§1)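 Screening used HEK-Blue cells overexpressing one human TLR (7, 8 or 9) and an IFN-β minimal promoter–NF-κB/AP-1 SEAP construct. Stimulation lasted 22 h at 37 °C with receptor-specific agonist: gardiquimod, R848 or ODN2006 at 7.5 μM, 15.9 μM and 5 nM.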

human TLR8 = target: T2, human TLR8 (Homo sapiens, UniProt Q9NR97); test: TLR8 inhibition reporter assay (HEK-Blue SEAP); format: cell-based; conditions: HEK-Blue cells overexpressing human TLR8, R848 15.9 μM, 22 hour incubation
T2 construct: host or cells: HEK-Blue cells
T2 sequence (Q9NR97 27-1041): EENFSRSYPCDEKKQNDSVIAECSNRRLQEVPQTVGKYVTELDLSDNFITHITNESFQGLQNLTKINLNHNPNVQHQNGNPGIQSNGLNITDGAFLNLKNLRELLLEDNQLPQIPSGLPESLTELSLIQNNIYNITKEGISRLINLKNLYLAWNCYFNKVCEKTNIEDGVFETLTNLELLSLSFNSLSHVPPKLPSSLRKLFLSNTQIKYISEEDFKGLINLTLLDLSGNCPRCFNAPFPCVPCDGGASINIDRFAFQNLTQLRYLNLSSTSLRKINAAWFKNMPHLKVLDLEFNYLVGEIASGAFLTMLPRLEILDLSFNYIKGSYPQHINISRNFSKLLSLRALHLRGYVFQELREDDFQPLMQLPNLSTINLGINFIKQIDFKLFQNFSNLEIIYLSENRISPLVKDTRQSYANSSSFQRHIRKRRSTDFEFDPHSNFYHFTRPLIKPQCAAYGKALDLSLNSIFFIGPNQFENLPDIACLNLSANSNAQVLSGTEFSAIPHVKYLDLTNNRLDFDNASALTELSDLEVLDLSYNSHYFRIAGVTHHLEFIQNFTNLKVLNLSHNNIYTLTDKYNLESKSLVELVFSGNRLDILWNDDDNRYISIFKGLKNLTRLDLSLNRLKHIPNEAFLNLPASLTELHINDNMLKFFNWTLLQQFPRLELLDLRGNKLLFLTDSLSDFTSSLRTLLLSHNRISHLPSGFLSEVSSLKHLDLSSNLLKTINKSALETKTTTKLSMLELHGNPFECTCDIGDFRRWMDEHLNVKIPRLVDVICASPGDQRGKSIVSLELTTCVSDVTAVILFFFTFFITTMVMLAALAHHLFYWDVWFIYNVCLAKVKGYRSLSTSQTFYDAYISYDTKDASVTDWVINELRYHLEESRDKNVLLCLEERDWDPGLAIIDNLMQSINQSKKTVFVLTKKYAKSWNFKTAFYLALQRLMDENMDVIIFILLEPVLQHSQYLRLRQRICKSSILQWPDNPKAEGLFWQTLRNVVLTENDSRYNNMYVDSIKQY
How it was run: as §1

IC50 (human TLR9) | IC50 (human TLR8) | SMILES
14400 nM | 0.51 nM | Cc1c(-c2cc3[nH]c(=O)n(C4CCC(N5CCC6(CC5)COC6)CC4)c3cc2C(C)C)cn2ncnc2c1C (single isomer, unassigned) [Example 282, 1-(4-(2-oxa-7-azaspiro[3.5]nonan-7-yl)cyclohexyl)-5-(7,8-dimethyl-[1,2,4]triazolo[1,5-a]pyridin-6-yl)-6-isopropyl-1,3-dihydro-2H-benzo[d]imidazol-2-one]
3560 nM | 0.18 nM | COc1cc(-c2cc3[nH]c(=O)n(C4CCC(N5CCC(OC)C5)CC4)c3cc2C(C)C)cn2ncnc12 (stereo not shown) [Example 284, 6-isopropyl-5-(8-methoxy-[1,2,4]triazolo[1,5-a]pyridin-6-yl)-1-(4-(3-methoxypyrrolidin-1-yl)cyclohexyl)-1,3-dihydro-2H-benzo[d]imidazol-2-one]
5340 nM | 0.09 nM | Cc1c(-c2cc3[nH]c(=O)n(C4CCC(N5CCC6(CC5)COC6)CC4)c3cc2C(C)C)cn2ncnc2c1C (single isomer, unassigned) [Example 283, 1-(4-(2-oxa-7-azaspiro[3.5]nonan-7-yl)cyclohexyl)-5-(7,8-dimethyl-[1,2,4]triazolo[1,5-a]pyridin-6-yl)-6-isopropyl-1,3-dihydro-2H-benzo[d]imidazol-2-one]
22200 nM | 7.9 nM | COc1cc(-c2cc3[nH]c(=O)n(C4CCC(N5CCC(F)(F)C5)CC4)c3cc2C(C)C)cn2ncnc12 (single isomer, unassigned) [Example 295, 1-(4-(3,3-difluoropyrrolidin-1-yl)cyclohexyl)-6-isopropyl-5-(8-methoxy-[1,2,4]triazolo[1,5-a]pyridin-6-yl)-1,3-dihydro-2H-benzo[d]imidazol-2-one]
47800 nM | 0.75 nM | COc1cc(-c2cc3[nH]c(=O)n(C4CCC(N5CCC(S(C)(=O)=O)C5)CC4)c3cc2C(C)C)cn2ncnc12 (single isomer, unassigned) [Example 288, 6-isopropyl-5-(8-methoxy-[1,2,4]triazolo[1,5-a]pyridin-6-yl)-1-(4-(3-(methylsulfonyl)pyrrolidin-1-yl)cyclohexyl)-1,3-dihydro-2H-benzo[d]imidazol-2-one]

Further lines, the molecule ahead of its results:

SMILES | IC50 (human TLR9) | IC50 (human TLR8)
Cc1cc2c(cc1-c1cc(C)c3ncnn3c1)[nH]c(=O)n2[C@H]1CC[C@H](N(C)C)CC1 [Example 23, 1-((1r,4r)-4-(dimethylamino)cyclohexyl)-6-methyl-5-(8-methyl-[1,2,4]triazolo[1,5-a]pyridin-6-yl)-1,3-dihydro-2H-benzo[d]imidazol-2-one] | 5660 nM | 30.9 nM
COc1cc(-c2cc3[nH]c(=O)n([C@@H]4CCCNC4)c3cc2C(F)(F)F)cn2ncnc12 [110 F, (R)-5-(8-methoxy-[1,2,4]triazolo[1,5-a]pyridin-6-yl)-1-(piperidin-3-yl)-6-(trifluoromethyl)-1,3-dihydro-2H-benzo[d]imidazol-2-one] | 2710 nM | 14.8 nM
Cc1cc2c(cc1-c1cc(C)c3ncnn3c1)[nH]c(=O)n2[C@H]1CC[C@@H](NC2CCOCC2)CC1 [Example 30, 6-methyl-5-(8-methyl-[1,2,4]triazolo[1,5-a]pyridin-6-yl)-1-((1s,4s)-4-((tetrahydro-2H-pyran-4-yl)amino)cyclohexyl)-1,3-dihydro-2H-benzo[d]imidazol-2-one] | 4490 nM | 3.12 nM
COc1cc(-c2cc3[nH]c(=O)n(C4CCC(N5CCSCC5)CC4)c3cc2C(C)C)cn2ncnc12 (stereo not shown) [Example 251, 6-isopropyl-5-(8-methoxy-[1,2,4]triazolo[1,5-a]pyridin-6-yl)-1-(4-thiomorpholinocyclohexyl)-1,3-dihydro-2H-benzo[d]imidazol-2-one] | 11900 nM | 0.95 nM
COc1c(C)c(-c2cc3[nH]c(=O)n(C4CCC(N5CC6(COC6)C5)CC4)c3cc2C(C)C)cn2ncnc12 (single isomer, unassigned) [Example 269, 1-(4-(2-oxa-6-azaspiro[3.3]heptan-6-yl)cyclohexyl)-6-isopropyl-5-(8-methoxy-7-methyl-[1,2,4]triazolo[1,5-a]pyridin-6-yl)-1,3-dihydro-2H-benzo[d]imidazol-2-one] | 25600 nM | 1.58 nM
Cc1cc2c(cc1-c1cc(C)c3ncnn3c1)[nH]c(=O)n2[C@@H]1CCCN(CCC(F)(F)F)C1 [Example 29, (R)-6-methyl-5-(8-methyl-[1,2,4]triazolo[1,5-a]pyridin-6-yl)-1-(1-(3,3,3-trifluoropropyl)piperidin-3-yl)-1,3-dihydro-2H-benzo[d]imidazol-2-one] | > 50000 nM | 49.5 nM
Cc1c(-c2cc3[nH]c(=O)n(C4CCC(N5CCC(F)(F)CC5)CC4)c3cc2C(C)C)cn2ncnc2c1C (single isomer, unassigned) [Example 276, 1-(4-(4,4-difluoropiperidin-1-yl)cyclohexyl)-5-(7,8-dimethyl-[1,2,4]triazolo[1,5-a]pyridin-6-yl)-6-isopropyl-1,3-dihydro-2H-benzo[d]imidazol-2-one] | 15300 nM | 1.92 nM
COc1cc(-c2cc3[nH]c(=O)n([C@H]4CC[C@@H](N)CC4)c3cc2C)cn2ncnc12 [1 EG, 1-((1s,4s)-4-aminocyclohexyl)-5-(8-methoxy-[1,2,4]triazolo[1,5-a]pyridin-6-yl)-6-methyl-1,3-dihydro-2H-benzo[d]imidazol-2-one] | 3650 nM | 32.6 nM
Cc1c(-c2cc3[nH]c(=O)n(C4CCC(N5CCCOCC5)CC4)c3cc2C(C)C)cn2ncnc2c1C (stereo not shown) [Example 271, 1-(4-(1,4-oxazepan-4-yl)cyclohexyl)-5-(7,8-dimethyl-[1,2,4]triazolo[1,5-a]pyridin-6-yl)-6-isopropyl-1,3-dihydro-2H-benzo[d]imidazol-2-one] | 8160 nM | 0.36 nM
Cc1c(-c2cc3[nH]c(=O)n(C4CCC(N5CC(F)C5)CC4)c3cc2C(C)C)cn2ncnc2c1C (stereo not shown) [Example 279, 5-(7,8-dimethyl-[1,2,4]triazolo[1,5-a]pyridin-6-yl)-1-(4-(3-fluoroazetidin-1-yl)cyclohexyl)-6-isopropyl-1,3-dihydro-2H-benzo[d]imidazol-2-one] | 10800 nM | 1.52 nM
Cc1cc2c(cc1-c1cc(C)c3ncnn3c1)[nH]c(=O)n2[C@H]1CC[C@H](NC(C)C)CC1 [Example 25, 1-((1r,4s)-4-(isopropylamino)cyclohexyl)-6-methyl-5-(8-methyl-[1,2,4]triazolo[1,5-a]pyridin-6-yl)-1,3-dihydro-2H-benzo[d]imidazol-2-one] | 4350 nM | 11.1 nM
COCCNC1CCC(n2c(=O)[nH]c3cc(-c4cn5ncnc5c(OC)c4C)c(C(C)C)cc32)CC1 (stereo not shown) [Example 257] | 23300 nM | 1.38 nM
